Where two headings read alike, the source gives them in different places. One block for each compound: values may come before it.
Legend:
MV-4-11 cells = assay: AML cell viability, CellTiter-Glo, MV-4-11 cells; assay type: cell-based; settings: Homo sapiens, MV4-11, CellTiter-Glo, read-out: Cell viability classification
Method: MV4-11 cells were obtained from ATCC and grown in IMDM supplemented with 10% FBS. The cells were maintained at 37° C. under 5% CO2. […] The luminescence was normalized to that of DMSO-treated samples. IC50 values were obtained using three-parameter non-linear regressions using Prism (GraphPad). […] Cell viability was measured using the CellTiter-Glo reagent after 44 hours of treatment. […] MV4-11 cells were obtained from ATCC and grown in IMDM supplemented with 10% FBS. The cells were maintained at 37° C. under 5% CO2. […] Cell viability was measured using the CellTiter-Glo reagent after 44 hours of treatment.

GSPT1 [1] = biological target: T1, GSPT1 (Homo sapiens, UniProt P15170+Q96SW2); assay: GSPT1 degradation, Western Blot, MV-4-11 cells, 0.1 μM, 4 hours; assay type: cell-based; settings: MV4-11, % reduction of GSPT1 compared to DMSO, normalized to GAPDH, read-out: GSPT1 degradation classification
Method: Compounds of the present disclosure was added to cells (final DMSO concentration of 0.1%) and incubated for 4 hours. GSPT1 levels were determined in MV-4-11 cells using Western Blot analysis. […] Protein levels were normalized to GAPDH levels.
The efficacy of GSPT1 degradation of a part of compounds of the present disclosure was determined by treating MV-4-11 cells at 0.1 μM (final DMSO concentration of 0.1%) for 4 hours. GSPT1 levels were determined using Western Blot and normalized to GAPDH levels.

GSPT1 [2] = biological target: T1, GSPT1; assay: cell-based; settings: read-out: GSPT1 degradation classification
HCC827 cells = assay: NSCLC cell viability, CellTiter-Glo, HCC827 cells; assay type: cell-based; settings: Homo sapiens, read-out: Cell viability classification
Method: HCC827 cells were obtained from Korean Cell Line Bank (KCLB) and grown in RPMI supplemented with 10% FBS. The cells were maintained at 37° C. under 5% CO2.
(§1) The efficacy of the present disclosure to reduce viability of Non-Small Cell Lung Cancer (NSCLC) cells was assessed using CellTiter-Glo Cell Viability Assay (Promega) according to the manufacturer's protocol. […] The luminescence was normalized to that of DMSO-treated samples. IC50 values were obtained using three-parameter non-linear regressions using Prism (GraphPad).
The efficacy of additional compounds of the present disclosure in reducing HCC827 cell viability was determined by treating HCC827 cells at various concentrations (final DMSO concentration of 0.1%). Cell viability was measured using the CellTiter-Glo reagent after 72 hours of treatment.

A549 cells = assay: NSCLC cell viability, CellTiter-Glo, A549 cells; assay type: cell-based; settings: Homo sapiens, 72 hours of treatment, read-out: Cell viability classification
Method: A549 cells were obtained from Korean Cell Line Bank (KCLB) and grown in RPMI supplemented with 10% FBS. The cells were maintained at 37° C. under 5% CO2.
as §1
The efficacy of additional compounds of the present disclosure in reducing A549 cell viability was determined by treating A549 cells at various concentrations (final DMSO concentration of 0.1%). Cell viability was measured using the CellTiter-Glo reagent after 72 hours of treatment.

[3] = TABLE 2, MV-4-11 cells assumed, 44 hours
[4] = MV-4-11 cells, 44 hours of treatment, TABLE 1
[5] = MV4-11, MV-4-11 cells, 1 μM, 6 hours, Western Blot, % reduction of GSPT1 compared to DMSO, normalized to GAPDH
[6] = HCC827 cells, CellTiter-Glo, 72 hours of treatment

T1 sequence (P15170 whole entry): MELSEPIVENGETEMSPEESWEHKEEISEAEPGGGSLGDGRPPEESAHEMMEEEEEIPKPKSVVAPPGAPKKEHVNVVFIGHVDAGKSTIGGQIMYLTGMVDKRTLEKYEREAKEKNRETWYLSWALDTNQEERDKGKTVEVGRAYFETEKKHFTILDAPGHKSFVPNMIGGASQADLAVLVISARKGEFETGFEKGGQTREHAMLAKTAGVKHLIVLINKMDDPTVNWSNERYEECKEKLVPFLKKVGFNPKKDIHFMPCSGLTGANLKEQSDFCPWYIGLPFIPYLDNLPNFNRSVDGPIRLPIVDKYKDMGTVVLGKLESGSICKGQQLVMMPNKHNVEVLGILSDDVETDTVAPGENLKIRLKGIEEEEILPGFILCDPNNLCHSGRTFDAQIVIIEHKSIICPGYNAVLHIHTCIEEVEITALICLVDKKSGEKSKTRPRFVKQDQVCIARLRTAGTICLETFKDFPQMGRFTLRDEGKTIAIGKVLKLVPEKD
T1 sequence (Q96SW2 whole entry): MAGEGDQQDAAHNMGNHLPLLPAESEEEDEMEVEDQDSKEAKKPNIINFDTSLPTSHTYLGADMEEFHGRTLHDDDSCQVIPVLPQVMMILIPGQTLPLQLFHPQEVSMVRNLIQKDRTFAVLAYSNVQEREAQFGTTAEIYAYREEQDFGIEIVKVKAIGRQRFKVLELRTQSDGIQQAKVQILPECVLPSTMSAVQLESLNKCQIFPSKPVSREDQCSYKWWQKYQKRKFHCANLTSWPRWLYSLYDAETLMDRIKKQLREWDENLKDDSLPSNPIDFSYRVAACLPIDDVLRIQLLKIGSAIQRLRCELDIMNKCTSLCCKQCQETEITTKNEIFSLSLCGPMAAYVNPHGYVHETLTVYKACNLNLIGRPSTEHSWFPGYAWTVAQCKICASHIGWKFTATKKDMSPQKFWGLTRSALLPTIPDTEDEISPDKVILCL
T1 sequence (Q16531 whole entry partner): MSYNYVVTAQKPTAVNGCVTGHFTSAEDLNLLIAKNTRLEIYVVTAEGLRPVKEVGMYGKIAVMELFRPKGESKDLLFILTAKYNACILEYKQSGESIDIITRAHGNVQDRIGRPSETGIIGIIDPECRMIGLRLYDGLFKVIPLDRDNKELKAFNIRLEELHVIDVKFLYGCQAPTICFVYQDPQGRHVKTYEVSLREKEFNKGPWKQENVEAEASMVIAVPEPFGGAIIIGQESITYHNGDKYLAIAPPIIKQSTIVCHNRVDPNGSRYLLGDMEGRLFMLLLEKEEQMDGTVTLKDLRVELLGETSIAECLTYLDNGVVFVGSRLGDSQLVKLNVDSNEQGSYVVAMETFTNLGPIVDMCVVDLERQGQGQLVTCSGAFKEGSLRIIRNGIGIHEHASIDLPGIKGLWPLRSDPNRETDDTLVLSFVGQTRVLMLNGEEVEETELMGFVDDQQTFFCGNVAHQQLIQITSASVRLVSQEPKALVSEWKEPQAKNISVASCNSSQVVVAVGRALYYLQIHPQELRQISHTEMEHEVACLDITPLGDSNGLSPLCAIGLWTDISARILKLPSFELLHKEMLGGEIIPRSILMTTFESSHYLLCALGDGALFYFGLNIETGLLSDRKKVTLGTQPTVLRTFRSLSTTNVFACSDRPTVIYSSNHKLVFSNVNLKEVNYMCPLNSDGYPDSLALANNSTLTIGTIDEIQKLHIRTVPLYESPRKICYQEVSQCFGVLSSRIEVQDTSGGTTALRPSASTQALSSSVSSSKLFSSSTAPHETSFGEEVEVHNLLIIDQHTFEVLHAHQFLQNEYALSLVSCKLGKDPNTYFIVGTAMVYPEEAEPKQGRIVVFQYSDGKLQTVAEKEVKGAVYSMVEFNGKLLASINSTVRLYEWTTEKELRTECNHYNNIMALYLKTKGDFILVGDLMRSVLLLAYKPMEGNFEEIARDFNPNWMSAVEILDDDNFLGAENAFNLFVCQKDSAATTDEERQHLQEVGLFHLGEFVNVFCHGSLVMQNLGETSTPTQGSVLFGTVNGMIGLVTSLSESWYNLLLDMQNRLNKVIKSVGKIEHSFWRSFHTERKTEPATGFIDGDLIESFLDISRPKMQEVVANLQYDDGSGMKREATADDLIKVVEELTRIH

SMILES: O=C1CCC(N2Cc3cc(C(=O)N4CCc5c(F)ccc(F)c54)ccc3C2=O)C(=O)N1 (stereo not shown) [Example 63, 3-(5-(4,7-difluoroindoline-1-carbonyl)-1-oxoisoindolin-2-yl)piperidine-2,6-dione]
IC50 (MV-4-11 cells; [3]): 100 to 1000 nM
inhibition at 0.1 µM (GSPT1 [1]): < 50%

SMILES: O=C1CCC(N2Cc3cc(C(=O)N4CCc5c4ccc(F)c5F)ccc3C2=O)C(=O)N1 (stereo not shown) [Example 65, 3-(5-(4,5-difluoroindoline-1-carbonyl)-1-oxoisoindolin-2-yl)piperidine-2,6-dione]
IC50 (MV-4-11 cells; [3]): < 100 nM
inhibition at 0.1 µM (GSPT1 [1]): < 50%

SMILES: O=C1CCC(N2Cc3cc(C(=O)N4CCc5c4ccc(Cl)c5F)ccc3C2=O)C(=O)N1 (stereo not shown) [Example 66, 3-(5-(5-chloro-4-fluoroindoline-1-carbonyl)-1-oxoisoindolin-2-yl)piperidine-2,6-dione]
IC50 (MV-4-11 cells; [3]): < 100 nM
inhibition at 0.1 µM (GSPT1 [1]): < 50%

SMILES: O=C1CCC(N2Cc3cc(C(=O)Nc4csc5cccc(F)c45)ccc3C2=O)C(=O)N1 (stereo not shown) [Example 67, 2-(2,6-dioxopiperidin-3-yl)-N-(4-fluorobenzo[b]thiophen-3-yl)-1-oxoisoindoline-5-carboxamide]
IC50 (MV-4-11 cells; [3]): < 100 nM
inhibition at 0.1 µM (GSPT1 [1]): 50 to 75%

SMILES: O=C1CCC(N2Cc3cc(C(=O)Nc4csc5ccc(F)cc45)ccc3C2=O)C(=O)N1 (stereo not shown) [Example 68, 2-(2,6-dioxopiperidin-3-yl)-N-(5-fluorobenzo[b]thiophen-3-yl)-1-oxoisoindoline-5-carboxamide]
IC50 (MV-4-11 cells; [3]): < 100 nM
inhibition at 0.1 µM (GSPT1 [1]): 50 to 75%

SMILES: O=C1CCC(N2Cc3cc(C(=O)Nc4csc5cc(F)ccc45)ccc3C2=O)C(=O)N1 (stereo not shown) [Example 69, 2-(2,6-dioxopiperidin-3-yl)-N-(6-fluorobenzo[b]thiophen-3-yl)-1-oxoisoindoline-5-carboxamide]
IC50 (MV-4-11 cells; [3]): < 100 nM
inhibition at 0.1 µM (GSPT1 [1]): 50 to 75%

SMILES: O=C1CCC(N2Cc3cc(C(=O)Nc4csc5c(F)cccc45)ccc3C2=O)C(=O)N1 (stereo not shown) [Example 70, 2-(2,6-dioxopiperidin-3-yl)-N-(7-fluorobenzo[b]thiophen-3-yl)-1-oxoisoindoline-5-carboxamide]
IC50 (MV-4-11 cells; [3]): < 100 nM
inhibition at 0.1 µM (GSPT1 [1]): < 50%

SMILES: O=C1CCC(N2Cc3cc(C(=O)NC45CC(F)(C4)C5)ccc3C2=O)C(=O)N1 (stereo not shown) [Example 71, 2-(2,6-dioxopiperidin-3-yl)-N-(3-fluorobicyclo[1.1.1]pentan-1-yl)-1-oxoisoindoline-5-carboxamide]
IC50 (MV-4-11 cells; [3]): > 1000 nM
inhibition at 0.1 µM (GSPT1 [1]): < 50%

SMILES: O=C1CCC(N2Cc3cc(C(=O)NC45CCC(F)(CC4)CC5)ccc3C2=O)C(=O)N1 (stereo not shown) [Example 72, 2-(2,6-dioxopiperidin-3-yl)-N-(4-fluorobicyclo[2.2.2]octan-1-yl)-1-oxoisoindoline-5-carboxamide]
IC50 (MV-4-11 cells; [3]): 100 to 1000 nM
inhibition at 0.1 µM (GSPT1 [1]): 50 to 75%

SMILES: O=C1CCC(N2Cc3cc(C(=O)N4CCc5c4cccc5C(F)(F)F)ccc3C2=O)C(=O)N1 (stereo not shown) [Example 77, 3-(1-oxo-5-(4-(trifluoromethyl)indoline-1-carbonyl)isoindolin-2-yl)piperidine-2,6-dione]
IC50 (MV-4-11 cells; [4]): < 100 nM
inhibition at 1 µM (GSPT1 [2]; MV4-11, 6 h): > 75%

SMILES: O=C1CCC(N2Cc3cc(C(=O)N4CCc5cc(C(F)(F)F)ccc54)ccc3C2=O)C(=O)N1 (stereo not shown) [Example 78, 3-(1-oxo-5-(5-(trifluoromethyl)indoline-1-carbonyl)isoindolin-2-yl)piperidine-2,6-dione]
IC50 (MV-4-11 cells; [4]): 100 to 1000 nM
inhibition at 1 µM (GSPT1 [2]; MV4-11, 6 h): 50 to 75%

SMILES: O=C1CCC(N2Cc3cc(C(=O)N4CCc5ccc(C(F)(F)F)cc54)ccc3C2=O)C(=O)N1 (stereo not shown) [Example 79, 3-(1-oxo-5-(6-(trifluoromethyl)indoline-1-carbonyl)isoindolin-2-yl)piperidine-2,6-dione]
IC50 (MV-4-11 cells; [4]): 100 to 1000 nM
inhibition at 1 µM (GSPT1 [2]; MV4-11, 6 h): 50 to 75%

SMILES: O=C1CCC(N2Cc3cc(C(=O)N4CCc5cc(OC(F)(F)F)ccc54)ccc3C2=O)C(=O)N1 (stereo not shown) [Example 80, 3-(1-oxo-5-(5-(trifluoromethoxy)indoline-1-carbonyl)isoindolin-2-yl)piperidine-2,6-dione]
IC50 (MV-4-11 cells; [4]): 100 to 1000 nM
inhibition at 1 µM (GSPT1 [2]; MV4-11, 6 h): 50 to 75%

SMILES: O=C1CCC(N2Cc3cc(C(=O)N4CCc5ccc(OC(F)(F)F)cc54)ccc3C2=O)C(=O)N1 (stereo not shown) [Example 81, 3-(1-oxo-5-(6-(trifluoromethoxy)indoline-1-carbonyl)isoindolin-2-yl)piperidine-2,6-dione]
IC50 (MV-4-11 cells; [4]): > 1000 nM
inhibition at 1 µM (GSPT1 [2]; MV4-11, 6 h): < 50%

SMILES: COc1cccc2c1CCN2C(=O)c1ccc2c(c1)CN(C1CCC(=O)NC1=O)C2=O (stereo not shown) [Example 82, 3-(5-(4-methoxyindoline-1-carbonyl)-1-oxoisoindolin-2-yl)piperidine-2,6-dione]
IC50 (MV-4-11 cells; [4]): < 100 nM
inhibition at 1 µM (GSPT1 [2]; [5]): 50 to 75%

SMILES: COc1ccc2c(c1)CCN2C(=O)c1ccc2c(c1)CN(C1CCC(=O)NC1=O)C2=O (stereo not shown) [Example 83, 3-(5-(5-methoxyindoline-1-carbonyl)-1-oxoisoindolin-2-yl)piperidine-2,6-dione]
IC50 (MV-4-11 cells; [4]): < 100 nM
inhibition at 1 µM (GSPT1 [2]; MV4-11, 6 h): < 50%

SMILES: COc1ccc2c(c1)N(C(=O)c1ccc3c(c1)CN(C1CCC(=O)NC1=O)C3=O)CC2 (stereo not shown) [Example 84, 3-(5-(6-methoxyindoline-1-carbonyl)-1-oxoisoindolin-2-yl)piperidine-2,6-dione]
IC50 (MV-4-11 cells; [4]): 100 to 1000 nM
inhibition at 1 µM (GSPT1 [2]; MV4-11, 6 h): < 50%

SMILES: COc1cccc2c1N(C(=O)c1ccc3c(c1)CN(C1CCC(=O)NC1=O)C3=O)CC2 (stereo not shown) [Example 85, 3-(5-(7-methoxyindoline-1-carbonyl)-1-oxoisoindolin-2-yl)piperidine-2,6-dione]
IC50 (MV-4-11 cells; [4]): 100 to 1000 nM
inhibition at 1 µM (GSPT1 [2]; [5]): < 50%

SMILES: O=C1CCC(N2Cc3cc(C(=O)N4CCc5c(Cl)ccc(F)c54)ccc3C2=O)C(=O)N1 (stereo not shown) [Example 86, 3-(5-(4-chloro-7-fluoroindoline-1-carbonyl)-1-oxoisoindolin-2-yl)piperidine-2,6-dione]
IC50 (HCC827 cells; HCC827, 72 h): > 1000 nM

IC50 (HCC827 cells; [6]): > 1000 nM
SMILES: O=C1CCC(N2Cc3cc(C(=O)Nc4nsc5ccccc45)ccc3C2=O)C(=O)N1 (stereo not shown) [Example 89, N-(benzo[d]isothiazol-3-yl)-2-(2,6-dioxopiperidin-3-yl)-1-oxoisoindoline-5-carboxamide]

IC50 (HCC827 cells; [6]): > 1000 nM
SMILES: O=C1CCC(N2Cc3cc(C(=O)Nc4cscn4)ccc3C2=O)C(=O)N1 (stereo not shown) [Example 90, 2-(2,6-dioxopiperidin-3-yl)-1-oxo-N-(thiazol-4-yl)isoindoline-5-carboxamide]

SMILES: O=C1CCC(N2Cc3cc(C(=O)N4CCc5c(F)cc(F)cc54)ccc3C2=O)C(=O)N1 (stereo not shown) [Example 92, 3-(5-(4,6-difluoroindoline-1-carbonyl)-1-oxoisoindolin-2-yl)piperidine-2,6-dione]
IC50 (A549 cells): < 1000 nM

SMILES: O=C1CCC(N2Cc3cc(C(=O)Nc4ccccc4)ccc3C2=O)C(=O)N1 (stereo not shown) [Example 93, 2-(2,6-dioxopiperidin-3-yl)-1-oxo-N-phenylisoindoline-5-carboxamide]
IC50 (A549 cells): 1000 to 30000 nM

IC50 (A549 cells): > 1000 nM
SMILES: O=C1CCC(N2Cc3cc(C(=O)Nc4ccccc4F)ccc3C2=O)C(=O)N1 (stereo not shown) [Example 94, 2-(2,6-dioxopiperidin-3-yl)-N-(2-fluorophenyl)-1-oxoisoindoline-5-carboxamide]

SMILES: O=C1CCC(N2Cc3cc(C(=O)Nc4cccc5cccnc45)ccc3C2=O)C(=O)N1 (stereo not shown) [Example 95, 2-(2,6-dioxopiperidin-3-yl)-1-oxo-N-(quinolin-8-yl)isoindoline-5-carboxamide]
IC50 (A549 cells): > 1000 nM
